Tested on: cataracts in rats
Assay: Prevention or retardation of cataracts in galactose-fed rats
Format: in vivo, rat
Conditions: 30% galactose diet, A,C,E 0.0025%, B,D 0.01%
Description: The compounds to be tested were:
Test compound/diet mixtures were formulated as follows: […]
Similarly, the 0.01% level was designed to provide a drug concentration of 20 mg per kilogram per day.
All animals were fed the Purina Laboratory Chow and water, ad libitum for a two day acclimatization period. The indicated test compound/diet mixture then was introduced to all animals on Study Day 1 and the animals were maintained on this diet throughout thirty days of the study.
Sufficient amounts of test compound/diet mixture were maintained in the food hoppers to allow the animals to eat ad libitum. All aliquots of test compound/diet mixture added to the food hoopers were weighed and the weights, as well as day of addition, recorded.
Twelve animals were assigned to each treatment with each compound at the indicated percentage by total weight of feed. All eyes were examined with a handheld ophthalmoscope and/or penlight.

## CSc1ccc2c(c1)C1(CCO2)NC(=O)NC1=O (stereo not drawn) [A]
Study Day 2
  % of Total Eyes, + (vacuole): 0%
  % of Total Eyes, - (Normal): 100.0%
  % of Total Eyes, N (nuclear cataract): 0%
  % of Total Eyes, S (snowflake): 0%
  Number of Eyes Observed, + (vacuole): 0 eyes
  Number of Eyes Observed, - (Normal): 24 eyes
  Number of Eyes Observed, N (nuclear cataract): 0 eyes
  Number of Eyes Observed, S (snowflake): 0 eyes
  Number of Eyes Observed, ±: 0 eyes
Study Day 3
  % of Total Eyes, + (vacuole): 0%
  % of Total Eyes, - (Normal): 100.0%
  % of Total Eyes, N (nuclear cataract): 0%
  % of Total Eyes, S (snowflake): 0%
  Number of Eyes Observed, + (vacuole): 0 eyes
  Number of Eyes Observed, - (Normal): 24 eyes
  Number of Eyes Observed, N (nuclear cataract): 0 eyes
  Number of Eyes Observed, S (snowflake): 0 eyes
  Number of Eyes Observed, ±: 0 eyes
Study Day 4
  % of Total Eyes, + (vacuole): 0%
  % of Total Eyes, - (Normal): 79.2%
  % of Total Eyes, N (nuclear cataract): 0%
  % of Total Eyes, S (snowflake): 0%
  Number of Eyes Observed, + (vacuole): 0 eyes
  Number of Eyes Observed, - (Normal): 19 eyes
  Number of Eyes Observed, N (nuclear cataract): 0 eyes
  Number of Eyes Observed, S (snowflake): 0 eyes
  Number of Eyes Observed, ±: 5 eyes
Study Day 5
  % of Total Eyes, + (vacuole): 16.7%
  % of Total Eyes, - (Normal): 8.3%
  % of Total Eyes, N (nuclear cataract): 0%
  % of Total Eyes, S (snowflake): 0%
  Number of Eyes Observed, + (vacuole): 4 eyes
  Number of Eyes Observed, - (Normal): 2 eyes
  Number of Eyes Observed, N (nuclear cataract): 0 eyes
  Number of Eyes Observed, S (snowflake): 0 eyes
  Number of Eyes Observed, ±: 18 eyes
Study Day 6
  % of Total Eyes, + (vacuole): 58.4%
  % of Total Eyes, - (Normal): 8.3%
  % of Total Eyes, N (nuclear cataract): 0%
  % of Total Eyes, S (snowflake): 0%
  Number of Eyes Observed, + (vacuole): 14 eyes
  Number of Eyes Observed, - (Normal): 2 eyes
  Number of Eyes Observed, N (nuclear cataract): 0 eyes
  Number of Eyes Observed, S (snowflake): 0 eyes
  Number of Eyes Observed, ±: 8 eyes
Study Day 8
  % of Total Eyes, + (vacuole): 66.7%
  % of Total Eyes, - (Normal): 8.3%
  % of Total Eyes, N (nuclear cataract): 0%
  % of Total Eyes, S (snowflake): 0%
  Number of Eyes Observed, + (vacuole): 16 eyes
  Number of Eyes Observed, - (Normal): 2 eyes
  Number of Eyes Observed, N (nuclear cataract): 0 eyes
  Number of Eyes Observed, S (snowflake): 0 eyes
  Number of Eyes Observed, ±: 6 eyes
Study Day 10
  % of Total Eyes, + (vacuole): 62.5%
  % of Total Eyes, - (Normal): 8.3%
  % of Total Eyes, N (nuclear cataract): 0%
  % of Total Eyes, S (snowflake): 12.5%
  Number of Eyes Observed, + (vacuole): 15 eyes
  Number of Eyes Observed, - (Normal): 2 eyes
  Number of Eyes Observed, N (nuclear cataract): 0 eyes
  Number of Eyes Observed, S (snowflake): 3 eyes
  Number of Eyes Observed, ±: 4 eyes
Study Day 12
  % of Total Eyes, + (vacuole): 70.8%
  % of Total Eyes, - (Normal): 0%
  % of Total Eyes, N (nuclear cataract): 0%
  % of Total Eyes, S (snowflake): 16.7%
  Number of Eyes Observed, + (vacuole): 17 eyes
  Number of Eyes Observed, - (Normal): 0 eyes
  Number of Eyes Observed, N (nuclear cataract): 0 eyes
  Number of Eyes Observed, S (snowflake): 4 eyes
  Number of Eyes Observed, ±: 3 eyes
Study Day 14
  % of Total Eyes, + (vacuole): 66.7%
  % of Total Eyes, - (Normal): 0%
  % of Total Eyes, N (nuclear cataract): 0%
  % of Total Eyes, S (snowflake): 29.2%
  Number of Eyes Observed, + (vacuole): 16 eyes
  Number of Eyes Observed, - (Normal): 0 eyes
  Number of Eyes Observed, N (nuclear cataract): 0 eyes
  Number of Eyes Observed, S (snowflake): 7 eyes
  Number of Eyes Observed, ±: 1 eyes
Study Day 16
  % of Total Eyes, + (vacuole): 50.0%
  % of Total Eyes, - (Normal): 0%
  % of Total Eyes, N (nuclear cataract): 0%
  % of Total Eyes, S (snowflake): 50.0%
  Number of Eyes Observed, + (vacuole): 12 eyes
  Number of Eyes Observed, - (Normal): 0 eyes
  Number of Eyes Observed, N (nuclear cataract): 0 eyes
  Number of Eyes Observed, S (snowflake): 12 eyes
  Number of Eyes Observed, ±: 0 eyes
Study Day 18
  % of Total Eyes, + (vacuole): 33.3%
  % of Total Eyes, - (Normal): 0%
  % of Total Eyes, N (nuclear cataract): 0%
  % of Total Eyes, S (snowflake): 66.7%
  Number of Eyes Observed, + (vacuole): 8 eyes
  Number of Eyes Observed, - (Normal): 0 eyes
  Number of Eyes Observed, N (nuclear cataract): 0 eyes
  Number of Eyes Observed, S (snowflake): 16 eyes
  Number of Eyes Observed, ±: 0 eyes
Study Day 20
  % of Total Eyes, + (vacuole): 25.0%
  % of Total Eyes, - (Normal): 0%
  % of Total Eyes, N (nuclear cataract): 0%
  % of Total Eyes, S (snowflake): 75.0%
  Number of Eyes Observed, + (vacuole): 6 eyes
  Number of Eyes Observed, - (Normal): 0 eyes
  Number of Eyes Observed, N (nuclear cataract): 0 eyes
  Number of Eyes Observed, S (snowflake): 18 eyes
  Number of Eyes Observed, ±: 0 eyes
Study Day 22
  % of Total Eyes, + (vacuole): 25.0%
  % of Total Eyes, - (Normal): 0%
  % of Total Eyes, N (nuclear cataract): 0%
  % of Total Eyes, S (snowflake): 75.0%
  Number of Eyes Observed, + (vacuole): 6 eyes
  Number of Eyes Observed, - (Normal): 0 eyes
  Number of Eyes Observed, N (nuclear cataract): 0 eyes
  Number of Eyes Observed, S (snowflake): 18 eyes
  Number of Eyes Observed, ±: 0 eyes
Study Day 24
  % of Total Eyes, + (vacuole): 16.7%
  % of Total Eyes, - (Normal): 0%
  % of Total Eyes, N (nuclear cataract): 0%
  % of Total Eyes, S (snowflake): 83.3%
  Number of Eyes Observed, + (vacuole): 4 eyes
  Number of Eyes Observed, - (Normal): 0 eyes
  Number of Eyes Observed, N (nuclear cataract): 0 eyes
  Number of Eyes Observed, S (snowflake): 20 eyes
  Number of Eyes Observed, ±: 0 eyes
Study Day 26
  % of Total Eyes, + (vacuole): 8.3%
  % of Total Eyes, - (Normal): 0%
  % of Total Eyes, N (nuclear cataract): 0%
  % of Total Eyes, S (snowflake): 91.7%
  Number of Eyes Observed, + (vacuole): 2 eyes
  Number of Eyes Observed, - (Normal): 0 eyes
  Number of Eyes Observed, N (nuclear cataract): 0 eyes
  Number of Eyes Observed, S (snowflake): 22 eyes
  Number of Eyes Observed, ±: 0 eyes
Study Day 28
  % of Total Eyes, + (vacuole): 8.3%
  % of Total Eyes, - (Normal): 0%
  % of Total Eyes, N (nuclear cataract): 8.3%
  % of Total Eyes, S (snowflake): 83.3%
  Number of Eyes Observed, + (vacuole): 2 eyes
  Number of Eyes Observed, - (Normal): 0 eyes
  Number of Eyes Observed, N (nuclear cataract): 2 eyes
  Number of Eyes Observed, S (snowflake): 20 eyes
  Number of Eyes Observed, ±: 0 eyes
Study Day 30
  % of Total Eyes, + (vacuole): 4.2%
  % of Total Eyes, - (Normal): 0%
  % of Total Eyes, N (nuclear cataract): 12.5%
  % of Total Eyes, S (snowflake): 83.3%
  Number of Eyes Observed, + (vacuole): 1 eyes
  Number of Eyes Observed, - (Normal): 0 eyes
  Number of Eyes Observed, N (nuclear cataract): 3 eyes
  Number of Eyes Observed, S (snowflake): 20 eyes
  Number of Eyes Observed, ±: 0 eyes

— patent US4464385A, “Treatment of diabetic complications with hydantoins” (Alcon Laboratories, Inc., priority 1982, dated 1984)
